In patent US6699859B1 (dated 2004):

| SMILES | melting point |
| --- | --- |
| Cn1ncnc1COc1nn2c(-c3ccccc3)nnc2c(Cl)c1N1CCCC1 | 174.5 to 176 °C |
| Cn1cnc(COc2nn3c(-c4cccs4)nnc3c(Cl)c2N2CCOCC2)n1 | 221.9 to 222.8 °C |
